Test results as given in patent US9255132B2, “Angiopoietin derived peptides” (Compugen Ltd., priority 2008, dated 2016).
Residues, ends and D or L forms follow the SMILES beside them.

Target: T1, recombinant human Ang1 (Homo sapiens, UniProt Q15389)
T1 construct: purchased R&D Systems 923-AN-025/CF
T1 sequence (Q15389 16-498): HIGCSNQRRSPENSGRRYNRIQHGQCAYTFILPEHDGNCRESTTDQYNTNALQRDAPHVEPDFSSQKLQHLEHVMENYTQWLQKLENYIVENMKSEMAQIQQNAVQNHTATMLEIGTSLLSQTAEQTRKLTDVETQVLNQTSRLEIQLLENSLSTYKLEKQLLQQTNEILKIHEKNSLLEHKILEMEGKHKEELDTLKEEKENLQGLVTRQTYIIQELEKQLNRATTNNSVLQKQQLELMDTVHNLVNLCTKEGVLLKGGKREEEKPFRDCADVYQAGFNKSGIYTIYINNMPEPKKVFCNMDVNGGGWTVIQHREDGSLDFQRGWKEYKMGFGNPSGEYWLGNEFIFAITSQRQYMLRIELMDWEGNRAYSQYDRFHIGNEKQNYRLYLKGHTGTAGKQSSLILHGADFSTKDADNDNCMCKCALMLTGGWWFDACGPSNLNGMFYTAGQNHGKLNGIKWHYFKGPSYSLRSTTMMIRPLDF
Assay: BIACORE (SPR) binding of peptides to immobilized recombinant Ang1
Conditions: CM5 chip, 10-50 μM peptide
Description: The capability of CGEN-H2 [SEQ ID NO: 1], CGEN-H3 [SEQ ID NO: 2], CGEN-A8 [SEQ ID NO: 3], CGEN-H7 [SEQ ID NO: 4], CGEN-G4 [SEQ ID NO: 5], CGEN-G6 [SEQ ID NO: 6], CGEN-F9 [SEQ ID NO: 7], CGEN-F12 [SEQ ID NO: 8], CGEN-C6-30 [SEQ ID NO: 9], CGEN-All [SEQ ID NO: 10], and CGEN-G2 [SEQ ID NO: 11] to specifically bind to recombinant Ang1, Ang2, and Ang4 was investigated using the BIACORE technology, measuring protein-protein interaction and binding affinity (Wendler et al 2005, Anal Bioanal Chem, 381: 1056-1064). The technology is based on surface plasmon resonance (SPR), an optical phenomenon that enables detection of unlabeled interactants in real time. The SPR-based biosensors can be used in determination of active concentration, screening and characterization in terms of both affinity and kinetics.
Peptide-protein binding was analyzed using surface plasmon resonance. Analysis of the to interaction between CGEN-H2 [SEQ ID NO: 1], CGEN-H3 [SEQ ID NO: 2], CGEN-A8 [SEQ ID NO: 3], CGEN-H7 [SEQ ID NO: 4], CGEN-G4 [SEQ ID NO: 5], CGEN-G6 [SEQ ID NO: 6], CGEN-F9 [SEQ ID NO: 7], CGEN-F12 [SEQ ID NO: 8], CGEN-C6 [SEQ ID NO: 9], CGEN-A11 [SEQ ID NO: 10], and CGEN-G2 [SEQ ID NO: 11] peptides and recombinant human Ang1 carrier-free (R&D Systems, Cat#923-AN-025/CF, Lot#FHW1507031), human Ang2 carrier-free (R&D Systems, Cat#623-AN-025/CF, Lot#BNO0457121), and human Ang4 carrier-free (R&D Systems, Cat#964-AN-025/CF, Lot#ELM025121) was conducted using the BIAcore biosensor (Pharmacia Biosensor, Uppsala, Sweden). The recombinant Ang1, Ang2, and Ang4 were immobilized directly to a CM5 sensor chip. Solutions containing 10-50 μM of CGEN-H2 [SEQ ID NO: 1], CGEN-H3 [SEQ ID NO: 2], CGEN-A8 [SEQ ID NO: 3], CGEN-H7 [SEQ ID NO: 4], CGEN-G4 [SEQ ID NO: 5], CGEN-G6 [SEQ ID NO: 6], CGEN-F9 [SEQ ID NO: 7], CGEN-F12 [SEQ ID NO: 8], CGEN-C6 [SEQ ID NO: 9], CGEN-A11 [SEQ ID NO: 10], and CGEN-G2 [SEQ ID NO: 11] peptides were injected into the sample chamber of the BIACORE device at a rate of […] and the interaction was monitored using surface plasmon resonance.
Solutions containing different concentrations of CGEN-G6 [SEQ ID NO: 6], CGEN-F9 [SEQ ID NO: 7], CGEN-F12 [SEQ ID NO: 8], CGEN-A11 [SEQ ID NO: 10], and CGEN-G2 [SEQ ID NO: 11] peptides (as indicated in Table 2) were injected into the sample chamber of the BIACORE device at a rate of […] and the interaction was monitored using surface plasmon resonance. As a background, the solutions were also injected onto an empty flow cell with no immobilized ligand and the in binding levels achieved were subtracted. Data was analyzed using BIAevaluation software. The affinity constant of the interaction between CGEN-G6 [SEQ ID NO: 6], CGEN-F9 [SEQ ID NO: 7], CGEN-F12 [SEQ ID NO: 8], CGEN-C6 [SEQ ID NO: 9], CGEN-A11 [SEQ ID NO: 10], and CGEN-G2 [SEQ ID NO: 11] and Ang1, Ang2, or Ang4 was determined by direct kinetic analysis. The 1:1 Langmuir binding model was used to fit kinetic data.
Table 2 summarizes results of analysis of CGEN-G6 [SEQ ID NO: 6], CGEN-F9 [SEQ ID NO: 7], CGEN-F12 [SEQ ID NO: 8], CGEN-A11 [SEQ ID NO: 10], and CGEN-G2 [SEQ ID NO: 11] interaction with Ang1, Ang2, or Ang4. Kinetic measurements were done at the indicated concentration range, and they are presented as KD (M). CGEN-F12 [SEQ ID NO: 8] bound to Ang1 and Ang4 with high affinity. The specificity of this binding is not clear.

binding to immobilized Ang1 (in words) | Structure (SMILES)
capable of binding | CC(=O)N[C@@H](CCC(=O)O)C(=O)N[C@H](C(=O)N[C@@H](Cc1ccccc1)C(=O)N[C@@H](CC(C)C)C(=O)N[C@@H](CO)C(=O)N[C@H](C(=O)N[C@@H](CC(N)=O)C(=O)N[C@@H](CCCCN)C(=O)N[C@@H](CC(C)C)C(=O)N[C@@H](CCC(=O)O)C(=O)N[C@@H](CC(N)=O)C(=O)N[C@@H](CCC(N)=O)C(N)=O)[C@@H](C)O)[C@@H](C)O [CGEN-A11, ETFLSTNKLENQ] (Ac-ETFLSTNKLENQ-NH2)
capable of binding | CSCC[C@H](NC(=O)[C@H](CC(C)C)NC(=O)[C@H](CC(=O)O)NC(C)=O)C(=O)N[C@@H](CCC(=O)O)C(=O)N[C@H](C(=O)N[C@H](C(=O)N[C@@H](CC(N)=O)C(=O)N[C@@H](CC(N)=O)C(=O)N[C@@H](CC(C)C)C(=O)N[C@@H](CC(C)C)C(=O)N[C@H](C(=O)N[C@@H](CCSC)C(=O)N[C@@H](CCSC)C(=O)N[C@@H](CO)C(=O)N[C@H](C(=O)N[C@@H](CO)C(=O)N[C@@H](CC(N)=O)C(=O)N[C@@H](CO)C(=O)N[C@@H](C)C(=O)N[C@@H](CCCCN)C(=O)N[C@@H](CC(=O)O)C(N)=O)[C@@H](C)O)[C@@H](C)O)C(C)C)[C@@H](C)O [CGEN-G6] (Ac-DLMETVNNLLTMMSTSNSAKD-NH2)
capable of binding | CC[C@H](C)[C@H](NC(=O)[C@H](C)NC(=O)[C@H](CCCNC(=N)N)NC(=O)[C@H](CCC(=O)O)NC(=O)[C@H](CC(C)C)NC(=O)[C@H](CCCCN)NC(=O)[C@H](CCCCN)NC(=O)[C@H](CC(C)C)NC(=O)[C@H](Cc1c[nH]c2ccccc12)NC(=O)[C@H](CCC(N)=O)NC(=O)[C@@H](NC(=O)[C@H](CC(N)=O)NC(=O)[C@H](CC(N)=O)NC(=O)[C@H](CCC(N)=O)NC(=O)[C@H](CC(C)C)NC(=O)[C@H](C)NC(=O)[C@H](CCC(N)=O)NC(=O)[C@H](CCC(=O)O)NC(=O)[C@H](CC(C)C)NC(=O)[C@H](CCC(N)=O)NC(=O)[C@H](CCCCN)NC(=O)[C@@H](NC(=O)[C@H](CCC(N)=O)NC(=O)[C@H](CCC(N)=O)NC(=O)[C@@H](NC(C)=O)[C@@H](C)O)C(C)C)[C@@H](C)O)C(=O)N[C@@H](CCCCN)C(=O)N[C@H](C(=O)N[C@H](C(=O)N[C@@H](CC(C)C)C(N)=O)[C@@H](C)CC)[C@@H](C)O [CGEN-G2] (Ac-TQQVKQLEQALQNNTQWLKKLERAIKTIL-NH2)
